Experimental findings from ChEMBL document CHEMBL5338823, “Discovery of Novel 5,6-Dihydro-1,2,4-triazine Derivatives as Efficacious Glucagon-Like Peptide-1 Receptor Agonists” (J Med Chem, 2023) are described below.

In general, half-life refers to the time in which the quantity being followed falls by half. A higher half-life goes with slow loss.

Structures are written as SMILES. Activity calls are given as the source filed them. The rule behind the calls is not given here.

Data set [1] has as its system Mus musculus. Put plainly: In vivo agonist activity at GLP-1R in C57BL/6J mouse with human GLP-1R knock-in assessed as reduction in food intake at 30 mg/kg, sc measured after 2.5 to 12 hrs in dark cycle. The class given is functional, organism-based. Particulars: time 2.5-12 hrs.
Data set [2] deals with Mus musculus. The data set can be described thus: In vivo agonist activity at GLP-1R in C57BL/6J mouse with human GLP-1R knock-in assessed as reduction in blood glucose level at 1 mg/kg, po pre-treated with compound for 1 hrs followed by glucose administration for 3 hrs and further treated with second glucose dose and measured upto 270 mins by Oral Glucose Tolerance Test. The class given is functional, organism-based. Particulars: time <= 330.0 min.

Data set [3] in a line: Stability in rat liver microsomes assessed as intrinsic clearance at 1 uM measured upto 60 mins in the presence of NADPH by LC-MS/MS analysis. Type of data set: ADME, Microsome. Particulars: 1 h. (In general: Liver microsomes are a subcellular fraction often used to study metabolism.)
The test system of data set [4] is Mus musculus. The data set can be described thus: In vivo agonist activity at GLP-1R in C57BL/6J mouse with human GLP-1R knock-in assessed as reduction in blood glucose level at 1 mg/kg, po pre-treated with compound for 1 hrs followed by glucose administration and measured upto 90 mins by Oral Glucose Tolerance Test. The class given is functional, organism-based. Particulars: time <= 150.0 min.

A short description of data set [5]: Stability in human liver microsomes assessed as intrinsic clearance at 1 uM measured upto 60 mins in the presence of NADPH by LC-MS/MS analysis. The class given is ADME, Microsome. Particulars: 1 h.
For data set [6], the target named is T1, Glucagon-like peptide 1 receptor (Homo sapiens, UniProt P43220). Put plainly: Potency index, ratio of danuglipron EC50 to test compound EC50 for partial agonist activity at N-terminal HA-tagged human GLP-1R expressed in HEK293 cells co-expressing Smbit-beta-arrestin 1/2 and GLP-1R-LgBit assessed as beta-arrestin-2 recruitment measured after 5 mins by bioluminescence based NanoBiT assay. The class given is functional, cell-based. A general note: Arrestin recruitment assays detect the binding of arrestin to an activated receptor.
T1 sequence (P43220 whole entry): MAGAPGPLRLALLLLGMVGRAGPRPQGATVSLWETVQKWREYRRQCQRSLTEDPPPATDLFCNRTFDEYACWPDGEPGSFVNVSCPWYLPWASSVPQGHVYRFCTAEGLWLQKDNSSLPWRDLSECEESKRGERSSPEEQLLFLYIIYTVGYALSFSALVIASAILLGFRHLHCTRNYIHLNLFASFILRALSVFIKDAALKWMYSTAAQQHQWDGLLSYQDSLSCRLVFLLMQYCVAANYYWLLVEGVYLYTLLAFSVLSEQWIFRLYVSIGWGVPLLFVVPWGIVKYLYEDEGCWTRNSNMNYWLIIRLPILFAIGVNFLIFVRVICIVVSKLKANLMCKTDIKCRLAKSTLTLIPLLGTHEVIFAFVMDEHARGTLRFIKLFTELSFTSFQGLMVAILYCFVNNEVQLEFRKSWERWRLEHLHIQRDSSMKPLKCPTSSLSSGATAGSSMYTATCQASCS

A short description of data set [7]: Drug concentration in C57BL/6J mouse plasma at 5 mg/kg, po measured after 1 hrs by LC-MS/MS analysis. Type of data set: ADME, organism-based.
In data set [8] the target is T1, Glucagon-like peptide 1 receptor. Put plainly: Potency index, ratio of danuglipron EC50 to test compound EC50 for agonist activity at N-terminal HA-tagged human GLP-1R expressed in HEK293 cells assessed as change in intracellular calcium level by Fluo-4 AM dye based calcium mobilization assay. The class given is functional, cell-based.
A short description of data set [9]: Half-life in Sprague-Dawley rat at 5 mg/kg, po measured upto 24 hrs by LC-MS/MS analysis. Particulars: in vivo. The class given is ADME, organism-based.

Consider `COc1cc(C(F)(F)F)ccc1COc1cccc(N2C=NN(Cc3nc4c(F)cc(C(=O)O)cc4n3C[C@@H]3CCO3)CC2)n1`, for which the result in [1], in data set [2] and in data set [4] was Active. Moreover, the CLH in data set [3] turned out to be 28 mL/min/g; in [5], 12 mL/min/g. The Ratio EC50 in [6] and in data set [8] was 10 throughout. Besides, the concentration at 1 h in data set [7] came to 132 ng/mL. The half-life in data set [9] is 1.05 h.
